According to article PMC11267282, “Ultrashort‐Peptide‐Responsive Gene Switches for Regulation of Therapeutic Protein Expression in Mammalian Cells” (Advanced Science, 2024):
Entries after “also recorded” stand apart in the source; their conditions may differ. Where a SMILES comes first, the peptide text is derived from it.

Key:
[1] = tested on: engineered mammalian cells; experiment: Resazurin-based cell viability assay; conditions: 50 and 250 µmol/L, 24 h, n = 4
Method: Cells were incubated with resazurin (cat. no. R7017, Sigma‐Aldrich, USA) at a concentration of 50 µg ml^−1 for 2 h. Then fluorescence was assayed with a plate reader (Tecan Spark, Tecan Group Ltd., Switzerland) at excitation and emission wavelengths of 540 and 590 nm, respectively. The fluorescence intensity of non‐induced cells was set to 100%.

[2] = tested on: CD4 / CD8 T cells of immunized mice; experiment: T-cell response, intracellular cytokine staining; format: in vivo, mouse; conditions: FACS intracellular cytokine staining, spleen and draining lymph nodes, n = 3
Method: Mice were immunized at 2‐week intervals.
Isolated lymphocytes from spleens and lymph nodes were placed in a U‐bottom 96‐well plate and resuspended in 100 µl complete RPMI‐1640 medium, which contains FBS (10% v/v), HEPES (pH 7.2∼7.5, 1% v/v, Gibco), penicillin/streptomycin (1% v/v, Gibco), sodium pyruvate (1% v/v, Gibco) and 2‐mercaptoethanol (0.1% v/v, Gibco). Cells were stimulated with 1 µM cognate peptides or with Cell Stimulation Cocktail (a cocktail of phorbol 12‐myristate 13‐acetate (PMA) and ionomycin, Invitrogen) as positive controls at 37 °C for 4 h, in the presence of 10 µM brefeldin A (MedChemExpress) to inhibit cytokine secretion. Next, the cells were washed with 150 µl FACS buffer, and centrifuged with 1,500 g for 2 min. The supernatant was discarded and the cells were blocked with anti‐CD16/32 antibody (1:100, 93, 101302, BioLegend) in 20 µl/well FACS buffer at 4 °C for 15 min. Then 20 µl/well antibody cocktail containing anti‐CD3ε (1:500, 17A2, 100306, BioLegend), anti‐CD4 (1:500, RM4‐5, 100526, BioLegend), anti‐CD8β (1:500, YTS256.7.7, 126606, BioLegend), and anti‐CD45 (1:500, S18009F, 157211, BioLegend) was added to the cell mixture for 20 min incubation at 4 °C. […] Gate margins were determined on the basis of isotype controls and fluorescence‐minus‐one controls.

[3] = tested on: T1D mice with HEK-XIP implants; experiment: Serum inflammatory cytokines (ELISA); format: in vivo, mouse; conditions: four weeks after implantation, n = 5
Method: The concentrations of interferon gamma (IFN‐γ), interleukin‐6 (IL‐6), and tumor necrosis factor alpha (TNF‐α) in mouse serum were assessed by the use of specific enzyme‐linked immunosorbent assay (ELISA) kits. IFN‐γ levels were analyzed using the IFN gamma mouse ELISA kit (cat. no. ab282874, Abcam), IL‐6 levels were determined with the IL‐6 mouse ELISA kit (cat. no. ab100712, Abcam), and TNF‐α levels were quantified utilizing the TNF alpha mouse ELISA kit (cat. no. BMS607HS, ThermoFisher). Freund's Complete Adjuvant (cat. no.: 344289, Sigma‐Aldrich) and lipopolysaccharides (cat. no.: L2630‐10MG, Sigma‐Aldrich) were utilized to induce cytokine production as positive controls. Blood samples were collected from mice treated with adjuvant and LPS 24 hours post‐treatment. The quantification of cytokines from these groups was conducted using the same ELISA kit.

C57BL/6 mice = experiment: Antibody analysis for peptide immunogenicity; conditions: s.c., three doses of 5 mg kg−1 at two-week intervals, with Freund's adjuvant, OD450, n = 3
Method: Eight‐week‐old wild‐type male mice were immunized for peptide immunogenicity assessments. Briefly, peptide solution was premixed 1:1 with Freund's adjuvant in a total volume of 400 µl by thorough vigorous shaking. Then peptide/adjuvant mixes were injected subcutaneously in 30 min at a dose of 5 mg kg^−1. Mice were immunized at 2‐week intervals. Negative controls (mock‐immunized) were also included in the study. One week after the third dose of immunization, blood was sampled for antibody analysis.
For antibody analysis, the peptides were coated on the EIA/RIA plate (cat. no. 3590, Corning Inc. Life Sciences) in carbonate coating buffer (cat. no. CB01100, ThermoFisher) at 4 °C overnight. The next day the plate was blocked with 20% nonfat milk (cat. no. A0830,1000, AppliChem Panreac) for 24 h at 4 °C, and incubated with antibodies at the indicated dilution or at 37 °C for 1 h. Next, horseradish peroxidase‐linked anti‐mouse IgG (cat. no. LNA931V, GE Healthcare, USA) was added to the plate at a dilution of 1:1000 for 1 h at 37 °C. Between each step, the plate was washed with PBS at least three times. Then, 100 µl ultra TMB substrate solution (cat. no. 34028, ThermoFisher) was added to the plate at room temperature for 15 min, followed by the addition of 50 µl of stop solution (2 M H2SO4). The OD450 was measured by a plate reader (Tecan Spark, Tecan Group Ltd., Switzerland). Mouse anti‐HA antibody (cat. no. 901523, BioLegend, USA, 1:1000 dilution) was used as a positive control.

[4] = tested on: ComREXTRA in HEK-XIP cells; experiment: SEAP expression by monoclonal cell line HEK-XIP / monoclonal clones; format: cell-based, Streptococcus vestibularis; conditions: 24 h; for SEAP level vs non-induced (significance): peptides from human sequence BLAST (Supplementary Figure 14c,d), n = 4; for SEAP induction in HEK-XIP cells (result in words): specificity / orthogonality screening, vs non-induced control
Method: HEK‐293T or hMSC‐TERT cells were seeded in a 24‐well plate at a density of 5× 10^4 cells per well for 24 h. Then the cells were co‐transfected with 1000 ng of plasmid mixture containing pJH1611 (ITR‐OSTAT3‐SEAP‐P2A‐mINS‐pA:PRPBSA‐ECFP‐P2A‐PuroR‐pA‐ITR), pJH1618 (ITR‐PhCMV‐STAT3‐pA:PRPBSA‐ECFP‐P2A‐PuroR‐pA‐ITR), pJH1632 (ITR‐PSV40‐SP‐ComRK155R/F158Y/R186S/S222N/C17S‐EpoR‐IL‐6RB‐pA: PhCMV‐ZeoR‐P2A‐mRuby‐pA‐ITR) and the Sleeping Beauty transposase pJH42 (PhCMV‐SB100X‐pA)^[ [6], [44] ^] at the molar ratio of 2:10:50:6. After 24 h of transfection, the cells were transferred into the medium containing 0.5 µg ml^−1 puromycin, 5 µg ml^−1 blasticidin, and 100 µg ml^−1 of zeocin for antibiotic selection for three days. Then the polyclonal population of engineered cells was suspended in DMEM medium and separated by fluorescence‐activated cell sorting (FACS, BD FACS ARIA FUSION, BD Biosciences) using yPET (517/530), mRuby (558/605), and iRFP (690/713) fluorescence. The triple‐positive population was isolated into single cells and further cultured in 96‐well plates in medium containing the three selection antibiotics. After two weeks of clonal expansion, monoclonal cell lines were screened by the addition of XIP and the best‐in‐class cell line was selected for follow‐up experiments. Fluorescence‐based flow cytometry was performed to confirm triple‐positive fluorescence for the best‐in‐class cell line.
SEAP reporter levels in cell culture supernatants were quantified using a colorimetric assay. In brief, 20 µl of cell culture supernatant was mixed with 80 µl of PBS buffer (cat. no. 14190144, ThermoFisher) and heat‐inactivated at 65 °C for 30 min. Then 80 µl of 2x SEAP assay buffer (20 mM homoarginine, 1 mM MgCl2, 21% diethanolamine, pH 9.8) was mixed with 20 µl of substrate solution, and 100 µl of the buffer‐substrate mixture was added to 100 µl of the diluted heat‐inactivated sample. Absorbance at 405 nm was recorded using a plate reader (Tecan Spark, Tecan Group Ltd., Switzerland) for 30 min at 37 °C to determine the SEAP levels.

[5] = tested on: ComREXTRA (ComR-EpoR TM-IL-6RB); experiment: SEAP reporter assay, ComREXTRA-based synthetic receptor, transiently transfected HEK-293T; format: cell-based, Streptococcus vestibularis; conditions: IL-6 50 ng/mL or XIP 50 μmol/L
Method: Human embryonic kidney cells (HEK‐293T, ATCC: CRL‐11268), human telomerase‐immortalized mesenchymal stem cells (hMSC‐TERT),^[ [56] ^] human fibrosarcoma cells (HT‐1080, ATCC: CCL‐121), human cervical adenocarcinoma cells (HeLa, ATCC: CCL‐2), Chinese hamster ovary cells (CHO‐K1, ATCC: CCL‐61), baby hamster kidney cells (BHK‐21, ATCC: CCL‐10), and human liver cancer cells (Hep G2, ATCC: CRL‐11997) were cultured in Dulbecco's modified Eagle's medium (DMEM, cat. no. 52100–39, Thermo Fisher Scientific) containing 10% fetal bovine serum (FBS, cat. no. F7524, lot no. 022M3395, Sigma‐Aldrich) and 1% (v/v) streptomycin/penicillin (cat. no. L0022, Biowest). All mammalian cells were grown at 37 °C in a humidified atmosphere containing 5% CO2. For all transient transfections, 15 000 cells were seeded per well of a 96‐well plate (cat. no. 3599, Corning Inc. Life Sciences) overnight. Cells were transfected by mixing 100 ng of DNA and polyethyleneimine (PEI, 24765‐2, Polysciences) in a ratio of 1:4. […] The cell density was calculated using a cell counter (CellDrop BF Brightfield Cell Counter, DeNovix Inc.)
SEAP reporter levels in cell culture supernatants were quantified using a colorimetric assay. […] Absorbance at 405 nm was recorded using a plate reader (Tecan Spark, Tecan Group Ltd., Switzerland) for 30 min at 37 °C to determine the SEAP levels.

CC(C)[C@H](N)C(=O)N1CCC[C@H]1C(=O)N[C@@H](Cc1ccccc1)C(=O)N[C@@H](Cc1ccccc1)C(=O)N[C@@H](Cc1ccc(O)cc1)C(=O)N[C@@H](Cc1ccc(O)cc1)C(=O)O [ID3] (H-VPFFYY-OH)
HEK-XIP cell viability [1]: ns | Peptide-specific T-cell response [2]: no peptide‐specific T‐cell response was detected | Serum IFN-γ (significance) ([3]; vs non-induced): ns | Serum TNF-α (significance) ([3]; vs non-induced): ns | Serum IL-6 ([3]; undetectable): Below 0.82 pg/ml | Antibody response (C57BL/6 mice): no detectable antibodies’ response | Antibody response (C57BL/6 mice; listed as XIP_ID3): ns

CC[C@H](C)[C@H](NC(=O)[C@H](CCSC)NC(=O)[C@H](Cc1ccccc1)NC(=O)[C@H](Cc1ccc(O)cc1)NC(=O)[C@@H]1CCCN1C(=O)[C@@H](N)C(C)C)C(=O)N[C@@H](Cc1ccc(O)cc1)C(=O)N[C@@H](Cc1ccc(O)cc1)C(=O)O [RE10] (H-VPYFMIYY-OH)
HEK-XIP cell viability [1]: ns

CSCC[C@H](NC(=O)[C@H](Cc1ccccc1)NC(=O)[C@H](Cc1ccc(O)cc1)NC(=O)[C@@H]1CCCN1C(=O)[C@H](C)N)C(=O)NCC(=O)N[C@@H](Cc1ccc(O)cc1)C(=O)N[C@@H](Cc1ccc(O)cc1)C(=O)O [RE12] (H-APYFMGYY-OH)
HEK-XIP cell viability [1]: ns

APFFYY [Align19_APFFYY, short peptide based on conserved human motif]
SEAP level vs non-induced (significance) [4]: ns

APYFMIYY [RE11]
HEK-XIP cell viability [1]: ns

BAM8‐22 [reference compound]
SEAP induction in HEK-XIP cells (result in words) [4]: none of them displayed inducing activity

C peptide [reference compound]
SEAP induction in HEK-XIP cells (result in words) [4]: none of them displayed inducing activity

DPFFYY [Align18_DPFFYY, short peptide based on conserved human motif]
SEAP level vs non-induced (significance) [4]: ns

LPFFMIL [Align10-13_LPFFMIL, short peptide based on conserved human motif]
SEAP level vs non-induced (significance) [4]: ns

PPFFYY [Align14/20_PPFFYY, short peptide based on conserved human motif]
SEAP level vs non-induced (significance) [4]: ns

RAPKFMIY [Align14_RAPKFMIY, short peptide based on conserved human motif]
SEAP level vs non-induced (significance) [4]: ns

RPFFYY [Align10-12_RPFFYY, short peptide based on conserved human motif]
SEAP level vs non-induced (significance) [4]: ns

RPFFYYYY [Align3-4_RPFFYYYY, short peptide based on conserved human motif]
SEAP level vs non-induced (significance) [4]: ns

RPFHFMIY [Align15-20_RPFHFMIY, short peptide based on conserved human motif]
SEAP level vs non-induced (significance) [4]: ns

VPFFMIIC [Align1-9_VPFFMIIC, short peptide based on conserved human motif]
SEAP level vs non-induced (significance) [4]: ns

VPFFMYY [ID1]
SEAP induction in HEK-XIP cells (result in words) [4]: significant fold inductions

VPFFYYYY [Align1-2_VPFFYYYY, short peptide based on conserved human motif]
SEAP level vs non-induced (significance) [4]: ns

VPFYYY [Align8-9/17_VPFYYY, short peptide based on conserved human motif]
SEAP level vs non-induced (significance) [4]: ns

VPFYYYY [Align5-7_VPFYYYY, short peptide based on conserved human motif]
SEAP level vs non-induced (significance) [4]: ns

VPYFYY [Align16_VPYFYY, short peptide based on conserved human motif]
SEAP level vs non-induced (significance) [4]: ns

VPYFYYY [Align15_VPYFYYY, short peptide based on conserved human motif]
SEAP level vs non-induced (significance) [4]: ns

interleukin 6 [IL-6]
SEAP induction of XIPEXTRA system ([5]; n = 4): ns | SEAP induction of XIPEXTRA system ([5]; n = 4, listed as IL‐6): no apparent induction; also recorded: no detectable activation
